Experiment [1] deals with prostate cancer cell lines (LNCaP, DU 145, PC-3, PPC-1). Kind of experiment: SRB cytotoxicity, prostate cancer cell panel (text summaries). It counts as cell-based. The note with it: Homo sapiens, read-out: IC50 against prostate cancer cells. From the text: (§1) The only compounds which belong to the invention are the ones falling under the scope of formula (XI).
The test system of experiment [2] is PC-3. Kind of experiment: cells.
Excerpt: as §1
Cells were stained with SRB solution.
Cells. […] Cells between the third and fifth passages were used for experiments.
Cell growth inhibition studies. […] Cells were stained with sulphorhodamine B (SRB) solution.

In experiment [3] the test system is A375. Kind of experiment: SRB cell growth inhibition (cytotoxicity) assay. The experiment is classed as cell-based, human.
The test system of experiment [4] is LNCaP. Description: cells. The settings on record: Homo sapiens, 96 h, read-out: IC50 ± SEM (nM), LNCaP.
Experiment [5] relates to PPC-1. Description: cells. The settings on record: Homo sapiens, PPC-1, 96 h, read-out: IC50 ± SEM (nM), PPC-1.
For experiment [6], the system named is DU 145. Description: cells. The settings on record: Homo sapiens, DU-145, 96 h.
Experiment [7] concerns B16-F1. Kind of experiment: SRB cell growth inhibition (cytotoxicity) assay. The experiment is classed as cell-based, mouse.
Excerpt: as §1

The subject of experiment [8] is NCI/ADR-RES. Description: SRB growth inhibition, P-gp over-expressing MDR line. It counts as cell-based, human. The note with it: for Resistance factor: NCI/ADR-RES vs OVCAR-8, 5760 min; for IC50: Homo sapiens, NCI/ADR-RES, P-gp over-expressed MDR cell line, Table 5A, read-out: IC50 (nM), NCI/ADR-RES.
The test system of experiment [9] is Bovine brain tubulin. Description: In vitro tubulin polymerization assay. It counts as biochemical. The note with it: 10 µM; for tubulin polymerization inhibited: 20 min incubation, compared to vehicle.
Excerpt: (§2) In Vitro Tubulin Polymerization Assay.
as §2
In vitro microtubule polymerization assay.

Experiment [10] relates to melanoma cell lines (A375, WM-164, B16-F1) and prostate cancer cell lines (LNCaP, DU 145, PC-3, PPC-1). Kind of experiment: SRB cytotoxicity, melanoma and prostate cell panel (averages). It counts as cell-based. The settings on record: Prostate cell; summary of Tables 2, 3, 21; read-out: IC50 range over tested melanoma and prostate cell lines.
Excerpt: as §1

Experiment [11] relates to WM-164. Description: SRB cell growth inhibition (cytotoxicity) assay. It counts as cell-based, human.
Experiment [12] deals with OVCAR-8. Description: SRB growth inhibition, MDR model parent line. The experiment is classed as cell-based, human. The settings on record: Homo sapiens, OVCAR-8; Table 5A; read-out: IC50 (nM), OVCAR-8.
Experiment [13] deals with PC-3 prostate tumor xenograft. Description: In vivo antitumor efficacy, PC-3 xenograft. More on the design: species or system mouse. The settings on record: PC-3, 50 mg/kg i.p.; control 680 mm^3. The source says: PC-3 and A375 tumor xenograft studies.
In vivo antitumor activity [tumor growth inhibition (% T/C), tumor growth delay (T-C value), and tumor cell kill (total log cell kill)].

Experiment [14] deals with PPC-1.
Setting [15] is: Homo sapiens, PC-3, 96 h, read-out: IC50 ± SEM (nM), PC-3.
Setting [16] is: Homo sapiens, A-375, 96 h, read-out: IC50 ± SEM (nM), A375.
[17] abbreviates: read-out: IC50 ± SEM (nM), DU 145.
Setting [18] is: Mus musculus, B16-F1, read-out: IC50 ± SEM (nM), B16-F1.
Setting [19] is: summary over LNCaP, PC-3, DU-145, PPC-1.

Like-named read-outs stand apart in the source and are kept apart here.

The results in this text go back to patent EP2608671B1, “COMPOUNDS FOR TREATMENT OF CANCER” (Gtx, Inc., priority 2010, dated 2012).

Turning to `COc1cc(C(=O)c2cc(-c3ccccc3)ncn2)cc(OC)c1OC` [1b, (6-Phenylpyrimidin-4-yl)(3,4,5-trimethoxyphenyl)methanone], the IC50 in experiment [1] (summary of Table 1) is 3700 to 8300 nM; in experiment [2] (setting [15]), 8300 nM; in experiment [3] (setting [16]), more than 30000 nM; in [4] it was 7000 nM; in experiment [5], 3700 nM; in experiment [6] (setting [17]), 6900 nM. In addition, in experiment [7] (setting [18]), the IC50 was more than 30000 nM.

On to `COc1cc(C(=O)c2cccc(-c3ccccc3)n2)cc(OC)c1OC` [1c, (6-Phenylpyridin-2-yl)(3,4,5-trimethoxyphenyl)methanone], for which, in experiment [8], the Resistance factor was 0.4. In experiment [1] (setting [19]), the IC50 lay in the range of 12 to 35 nM.

Turning to `COc1cc(C(=O)c2ccc(-c3ccccc3)o2)cc(OC)c1OC` [1d, (5-Phenylfuran-2-yl)(3,4,5-trimethoxyphenyl)methanone], the IC50 in experiment [1] (setting [19]) is 12 to 35 nM; in [2] (setting [15]) it was 21 nM; in experiment [3] (setting [16]), 27 ± 8 nM; in experiment [4], 23 nM; in experiment [5], 20 nM; in [6] (setting [17]), 35 nM. Also, the IC50 in experiment [7] (setting [18]) stood at 151 ± 24 nM.

For `COc1cc(C(=O)c2cnc(-c3ccccc3)s2)cc(OC)c1OC` [1e, (2-Phenylthiazol-5-yl)(3,4,5-trimethoxyphenyl)methanone], the IC50 was more than 10000 nM in experiment [1] (summary of Table 1); more than 10000 nM in experiment [2] (setting [15]); 13600 ± 3800 nM in experiment [3] (setting [16]); more than 10000 nM in experiment [4]; more than 10000 nM in experiment [5]; more than 10000 nM in experiment [6] (setting [17]). For the same compound, the IC50 in experiment [7] (setting [18]) worked out at 12500 ± 5200 nM.

Turning to `COc1cc(C(=O)c2csc(-c3ccccc3)c2)cc(OC)c1OC` [1f, (5-Phenylthiophen-3-yl)(3,4,5-trimethoxyphenyl)methanone], the IC50 in experiment [1] (setting [19]) was 12 to 35 nM; in experiment [2] (setting [15]), 12 nM; in [3] (setting [16]), 15 ± 6 nM; in [5], 15 nM; in [6] (setting [17]), 26 nM; in experiment [7] (setting [18]), 72 ± 15 nM.

On to `COc1cc(C(=O)N2CCC(c3ccccc3)CC2)cc(OC)c1OC` [1g, (4-Phenylpiperidin-1-yl)(3,4,5-trimethoxyphenyl)methanone], for which the IC50 in experiment [1] (summary of Table 1) is more than 20000 nM; in experiment [2] (setting [15]) it was more than 20000 nM; in experiment [3] (setting [16]) it was more than 30000 nM; in experiment [4] it was more than 20000 nM; in experiment [5], more than 20000 nM; in [6] (setting [17]), more than 20000 nM. Moreover, the IC50 in experiment [7] (setting [18]) is more than 30000 nM.

Turning to `COc1cc(C(=O)c2cc(-c3ccccc3)on2)cc(OC)c1OC` [1i, (5-Phenylisoxazol-3-yl)(3,4,5-trimethoxyphenyl)methanone], the IC50 in [1] (summary of Table 1) was more than 10000 nM; in experiment [2] (setting [15]), more than 10000 nM; in [3] (setting [16]), more than 30000 nM; in experiment [4], more than 10000 nM; in experiment [5], more than 10000 nM; in experiment [6] (setting [17]), more than 10000 nM. For the same compound, the IC50 in [7] (setting [18]) was more than 30000 nM.

Take `COc1cc(C(=NC#N)c2csc(-c3ccccc3)n2)cc(OC)c1OC` [2j, N-((2-phenylthiazol-4-yl)(3,4,5-trimethoxyphenyl)methylene)cyanamide]: the IC50 was 14 ± 1 nM in experiment [8]; 27 ± 1 nM in [2] (setting [15]); 28 ± 12 nM in experiment [3] (setting [16]); 20 to 60 nM in experiment [10]; 27 ± 13 nM in experiment [11] (Homo sapiens, WM164, SRB assay, 96 h, Table 2, read-out: IC50 ± SEM (nM), WM-164); 23 ± 2 nM in experiment [4]. Further, the IC50 was found to be 20 ± 1 nM in experiment [5], 34 ± 2 nM in experiment [12], 42 ± 2 nM in experiment [6] (setting [17]) and 60 ± 21 nM in experiment [7] (setting [18]). Besides, the Resistance factor in [8] is on record as 0.4. The compound further had a tubulin polymerization inhibited in experiment [9] of 64%.

As to `COc1cc(C(=O)c2csc(-c3ccc(O)cc3)n2)cc(OC)c1OC` [2l, (2-(4-Hydroxyphenyl)thiazol-4-yl)(3,4,5-trimethoxyphenyl)methanone], the “Tumor volume at day 21” value in experiment [13] amounted to 331 mm^3. In experiment [9] (15 min, Figure 28B), this compound yielded an inhibited tubulin polymerization of 55%. Also, the IC50 in experiment [2] (setting [15]) was 87 nM; in experiment [3] (setting [16]), 100 nM; in [10], 76 to 116 nM; in experiment [4] it was 103 nM; in experiment [5] it was 76 nM; in experiment [6] (setting [17]) it was 116 nM. For the same compound, in [7] (setting [18]), the IC50 came to 110 nM.

As to `COc1cc(C(=O)c2csc(Nc3ccccc3)n2)cc(OC)c1OC` [5a, (2-(Phenylamino)thiazol-4-yl)(3,4,5-trimethoxyphenyl)methanone], the IC50 came out at 27 nM in experiment [8]; 57 ± 3 nM in experiment [2] (setting [15]); 45 ± 8 nM in [3] (setting [16]); 51 ± 1 nM in experiment [4]; 54 ± 1 nM in [5]; 46 ± 6 nM in [12]. Moreover, the values for the IC50 in experiment [6] (setting [17]) and in [7] (setting [18]) were 70 ± 4 nM and 65 ± 12 nM, respectively. In experiment [8], this compound yielded a Resistance factor of 0.6. The compound also yielded a tubulin polymerization inhibited in experiment [9] of 78%.

As to `COc1cc(C(=O)c2csc(Nc3ccc(F)cc3)n2)cc(OC)c1OC` [5c, (2-(p-Fluorophenylamino)thiazol-4-yl)(3,4,5-trimethoxyphenyl)methanone], the IC50 was 25 ± 6 nM in [8]; 43 ± 1 nM in experiment [2] (setting [15]); 41 ± 1 nM in experiment [4]; 44 ± 3 nM in experiment [12]; 63 ± 1 nM in experiment [6] (setting [17]). For the same compound, the Resistance factor in experiment [8] stood at 0.6.

As to `COc1cc(C(=O)c2c[nH]c(Nc3ccccc3)n2)cc(OC)c1OC` [5e, (2-(Phenylamino)-1H-imidazol-4-yl)(3,4,5-trimethoxyphenyl)methanone], the IC50 in experiment [1] (setting [19]), in experiment [2] (setting [15]), in experiment [4], in [5] and in [6] (setting [17]) was more than 1000 nM in each case.

On to `Cc1ccc(-c2nc(C(=O)c3ccc(F)cc3)c[nH]2)cc1` [12db, (4-fluorophenyl)(2-(p-tolyl)-1H-imidazol-4-yl)methanone], for which the “inhibition of tubulin polymerization” value in experiment [9] (15 min, Figure 22) is listed as approximately 80%. Moreover, the IC50 in [2] (setting [15]) stood at 56 ± 3 nM; in experiment [3] (Homo sapiens, A-375, A375 melanoma cells, 48 h, SRB, read-out: IC50 ± SEM (nM) A375), 143 ± 13 nM; in experiment [4], 45 ± 2 nM; in experiment [5] it was 34 ± 1 nM; in experiment [6] (read-out: IC50 ± SEM (nM) Du 145), 78 ± 5 nM.

`COc1cc(C(=O)[C@H]2COC(c3ccccc3)=N2)cc(OC)c1OC` [35a, (2R)-(2-Phenyl-4,5-dihydro-oxazol-4-yl)-(3,4,5-trimethoxy-phenyl)-methanone]: the IC50 in experiment [3] (SRB assay, 96 h, Tables 1, 2, 3, 5B, 5C, read-out: IC50 ± SEM (nM), A375) was determined as 500 ± 100 nM; in experiment [14] (read-out: IC50 ± SEM (nM), PPC-1, SRB assay, 96 h, Tables 1, 2, 3, 5B, 5C), 1100 ± 100 nM; in experiment [7] (SRB assay, Tables 1, 2, 3, 5B, 5C, read-out: IC50 ± SEM (nM), B16-F1), 6500 ± 800 nM.

`COc1cc(C(=O)c2csc(-c3ccc4[nH]ccc4c3)n2)cc(OC)c1OC` [66a]: the IC50 in experiment [8] is 4 ± 2 nM; in [2] (setting [15]), 7 nM; in [3] (setting [16]) it was 8 ± 1 nM; in experiment [10], 7 to 25 nM; in experiment [4], 10 nM; in experiment [5] it was 8 nM. For the same compound, the IC50 turned out to be 10 ± 3 nM in experiment [12], 13 nM in [6] (setting [17]) and 25 ± 13 nM in experiment [7] (setting [18]). Moreover, in experiment [8], the Resistance factor is recorded as 0.4. This compound showed a tubulin polymerization inhibited in experiment [9] of 81%.

With “(1-(phenylsulfonyl)-2-(1-(phenylsulfonyl)-1H-indol-3-yl)-1H-imidazol-4-yl)(3,4,5-trimethoxyphenyl)methanone [17yaa]”, the IC50 amounted to 148 nM in experiment [2] (read-out: IC50 (nM), PC-3, Table 6A); 481 nM in experiment [3] (Table 6A, read-out: IC50 (nM), A375); 468 nM in [11] (Table 6A, read-out: IC50 (nM), WM164); 209 nM in experiment [14] (read-out: IC50 (nM), PPC-1, Table 6A); 539 nM in [7] (Table 6A, read-out: IC50 (nM), B16-F1).
